From publication PMC3064516 (Nature structural & molecular biology, 2011)

Target: Autotaxin (ATX, ENPP2) (Homo sapiens, UniProt Q13822)
Assay: nucleotide phosphodiesterase assay, Km
Format: biochemical

Cc1cn([C@H]2C[C@H](O)[C@@H](COP(=O)(O)Oc3ccc([N+](=O)[O-])cc3)O2)c(=O)[nH]c1=O [pNP-TMP, p-nitrophenyl thymidine 5′-monophosphate] gave a Km of 1930 ± 200 µM.
